Legend:
Recombinant ALK kinase = target: T1, Recombinant ALK kinase (Homo sapiens, UniProt Q9UM73); experiment: ALK kinase inhibitory activity, ELISA-based in vitro kinase assay; format: biochemical; conditions: purified rALK, 0.3 mM ATP, read-out: ALK IC50
T1 construct: made in house; host or cells: Sf9 insect cells (baculovirus)
Description: 36. Alk Kinase Inhibitory Activity
(§1) Method: ELISA-Based In Vitro Kinase Assay
(§2) Recombinant ALK kinase was expressed in Sf9 insect cells using the pBlueBacHis2C baculovirus vector system and purified using an anion exchange Fast Flow Q-sepharose column (Amersham-Pharmacia Biotech) followed by HiTrap™-nickel affinity column (Amersham-Pharmacia Biotech). Purified ALK protein was used to screen inhibitors in the ELISA-based kinase assay. A Nunc Immuno 96 well plate was incubated overnight at 37° C. with coating solution (125 μL/well) containing ALK peptide substrate ([…]) (SEQ ID NO: 1) at various concentrations in PBS. Wells were then washed with 200 μL of wash buffer (PBS-Tween 0.05%) and left to dry for at least 2 h at 37° C. The kinase reaction was performed in the presence of 50 mM Tris pH 7.5, 5 mM MnCl2, 5 mM MgCl2, 0.3 mM ATP and purified rALK in a total volume of 100 μL/well at 30° C. for 15 min. For inhibitor testing the reaction mix was preincubated with the inhibitor or solvent control for 10 min at room temperature before transferring to the ELISA plate. After the reaction wells were washed 5 times with 200 μL of wash buffer. Phosphorylated peptide was detected using 100 μL/well of a mouse monoclonal anti-phosphotyrosine antibody (clone 4G10 Upstate Biotech Ltd) diluted 1:2000 in PBS+4% BSA. After 30 min incubation at room temperature the antibody was removed and wells were washed as described above. 100 μL of a secondary antibody (anti-mouse IgG, Horseradish Peroxidase linked whole antibody, Amersham Pharmacia Biotech) diluted 1:1000 in PBS+4% BSA was added to each well and the plate was incubated again for 30 min at room temperature before washing as above. The plate was developed using 100 μL/well TMB Substrate Solution (Endogen) and the reaction was stopped by adding an equiv.ual volume of H2SO4 0.36 M. Finally, the absorbance was read at 450 nm using an Ultrospec® 300 spectrophotometer (Amersham-Pharmacia Biotech). The concentration of the test solution showing 50% inhibition as compared with the control was expressed as IC50 (μM).

[1] = tested on: parent untransformed BaF3 cells; experiment: Tritiated thymidine uptake cell proliferation assay, parental BaF3 (control); format: cell-based; conditions: Mus musculus, 3[H]-thymidine uptake, 72 h, medium with IL-3, read-out: BaF parental IC50
Description: (§3) Method: Tritiated Thymidine Uptake Cell Proliferation Assay
(§4) The following procedure was used with parent untransformed BaF3 cells, BaF3 cells transformed with the oncogenic fusion protein NPM/ALK, NPM/ALK positive SUDHL-1 cells, ALK-negative U937 cells, NPM/ALK positive KARPAS-299 cells. The parent untransformed BaF3 cells and Alk-negative U937 cells are used as controls. Cells were seeded in U-bottomed 96-well plates at 10 000 cells/well in a volume of 100 μL in supplemented medium. In the case of the parent untransformed BaF3 cells, the medium was supplemented with IL-3. Serial dilutions of inhibitors were added to the appropriate wells and volumes adjusted to 200 μL. Controls were treated with the equivalent volume of vehicle, DMSO, alone. Plates were incubated at 37° C. for 72 h. ^3[H]-thymidine (1 μCi/well) was added for the last 16 h of incubation. Cells were harvested on to paper filters and ^3[H]-thymidine incorporation was measured using a β scintillation counter (1430 MicroBeta, Wallac, Turku, Finland). The 50% inhibitory concentration (IC50) was defined as the concentration of inhibitor, expressed in micromolar, that gave a 50% decrease in ^3[H]-thymidine uptake compared with controls.
as §4, with “protein bcr-abl, Abl-negative” for “protein NPM/ALK, NPM/ALK positive SUDHL-1 cells, ALK-negative”, “cells, or Bcr-abl” for “cells, NPM/ALK”, “positive LAMA-84” for “positive KARPAS-299”, “and Abl-negative” for “and Alk-negative”, “in ^3H-thymidine” for “in ^3[H]-thymidine”
as §4, with “RET-PTC2, or RET-negative 11937” for “NPM/ALK, NPM/ALK positive SUDHL-1 cells, ALK-negative U937 cells, NPM/ALK positive KARPAS-299”, “RET-negative” for “Alk-negative”

[2] = target: T2, BaF3 cells transformed with the oncogenic fusion protein NPM/ALK (Homo sapiens, UniProt Q9UM73); experiment: Tritiated thymidine uptake cell proliferation assay, BaF3 NPM/ALK; format: cell-based; conditions: 3[H]-thymidine uptake, 72 h; read-out: BaF NPM/ALK IC50
T2 construct: fused on or other part: P06748 (Nucleophosmin)
T2 sequence (Q9UM73 whole entry, change not shown, the tested form may be a part): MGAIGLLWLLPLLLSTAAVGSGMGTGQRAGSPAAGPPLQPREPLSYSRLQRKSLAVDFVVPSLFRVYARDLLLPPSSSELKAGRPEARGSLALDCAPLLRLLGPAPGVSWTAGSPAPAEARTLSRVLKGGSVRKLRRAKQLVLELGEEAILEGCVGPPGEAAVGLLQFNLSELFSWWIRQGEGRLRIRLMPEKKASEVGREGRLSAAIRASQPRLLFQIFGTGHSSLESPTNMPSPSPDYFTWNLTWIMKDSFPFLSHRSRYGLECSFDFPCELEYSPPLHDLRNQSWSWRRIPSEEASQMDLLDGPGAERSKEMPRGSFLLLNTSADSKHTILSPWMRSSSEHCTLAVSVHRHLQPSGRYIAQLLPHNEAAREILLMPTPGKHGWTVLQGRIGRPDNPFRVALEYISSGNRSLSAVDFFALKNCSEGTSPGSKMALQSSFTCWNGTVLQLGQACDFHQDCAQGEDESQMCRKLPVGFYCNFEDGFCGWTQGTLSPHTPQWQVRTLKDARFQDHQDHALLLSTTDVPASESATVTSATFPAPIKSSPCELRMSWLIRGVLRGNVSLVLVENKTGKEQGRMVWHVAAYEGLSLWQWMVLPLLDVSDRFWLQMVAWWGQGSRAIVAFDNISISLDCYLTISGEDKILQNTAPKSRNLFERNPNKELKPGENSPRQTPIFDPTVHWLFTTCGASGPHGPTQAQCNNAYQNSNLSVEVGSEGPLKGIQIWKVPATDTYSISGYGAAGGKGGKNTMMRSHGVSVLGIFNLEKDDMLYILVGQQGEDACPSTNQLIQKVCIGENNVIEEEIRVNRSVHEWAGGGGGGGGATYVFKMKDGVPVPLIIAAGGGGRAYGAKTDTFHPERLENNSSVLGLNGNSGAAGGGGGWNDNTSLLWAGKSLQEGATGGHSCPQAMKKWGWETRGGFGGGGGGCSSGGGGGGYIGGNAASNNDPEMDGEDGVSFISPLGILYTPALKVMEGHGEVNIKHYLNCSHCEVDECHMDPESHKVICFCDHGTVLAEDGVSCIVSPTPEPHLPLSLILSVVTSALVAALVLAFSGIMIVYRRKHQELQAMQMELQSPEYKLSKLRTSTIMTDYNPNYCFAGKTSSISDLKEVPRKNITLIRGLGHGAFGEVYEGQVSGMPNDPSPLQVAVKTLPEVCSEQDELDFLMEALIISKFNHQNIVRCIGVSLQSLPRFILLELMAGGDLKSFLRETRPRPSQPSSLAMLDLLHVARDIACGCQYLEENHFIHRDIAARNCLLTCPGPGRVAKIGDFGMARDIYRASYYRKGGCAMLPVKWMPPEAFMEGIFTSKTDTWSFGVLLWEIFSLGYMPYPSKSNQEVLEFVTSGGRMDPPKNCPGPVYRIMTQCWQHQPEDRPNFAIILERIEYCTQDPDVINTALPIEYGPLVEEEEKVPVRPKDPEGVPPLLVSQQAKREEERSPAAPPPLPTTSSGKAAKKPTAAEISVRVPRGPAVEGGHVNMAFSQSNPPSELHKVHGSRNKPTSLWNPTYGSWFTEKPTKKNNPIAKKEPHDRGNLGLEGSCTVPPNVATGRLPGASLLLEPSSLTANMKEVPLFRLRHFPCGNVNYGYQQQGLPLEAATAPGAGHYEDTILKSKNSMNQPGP
Description: Inhibition of the proliferation of NPM/ALK positive cells
as §3, §4

[3] = target: T3, Recombinant Abl T315I protein (Homo sapiens, UniProt P00519, T315I); experiment: Abl T315I mutant kinase inhibitory activity, ELISA-based in vitro kinase assay; format: biochemical; conditions: purified Abl T315I, 0.3 mM ATP
T3 construct: made in house; host or cells: Sf9 cells (baculovirus)
Description: as §2
37. Abl T315I Mutant Kinase Inhibitory Activity
as §1
Recombinant Abl T315I protein was expressed in Sf9 cells using the pBlueBacHis2C baculovirus expression vector. Abl T315I was purified using an anion exchange Fast Flow Q-sepharose column (Amersham-Pharmacia Biotech) followed by HiTrap™-nickel affinity column (Amersham-Pharmacia Biotech). Purified Abl T315I was used in the ELISA-based kinase assay to screen inhibitors as described above. The kinase reaction was performed in the presence of 50 mM Tris pH 7.5, 1 mM MnCl2, 5 mM MgCl2, 0.3 mM ATP, peptide substrate ([…]) (SEQ ID NO: 1) and purified Abl T315I. The concentration of the test solution showing 50% inhibition as compared with the control was expressed as IC50 (μM).

T1 sequence (Q9UM73 19-1620): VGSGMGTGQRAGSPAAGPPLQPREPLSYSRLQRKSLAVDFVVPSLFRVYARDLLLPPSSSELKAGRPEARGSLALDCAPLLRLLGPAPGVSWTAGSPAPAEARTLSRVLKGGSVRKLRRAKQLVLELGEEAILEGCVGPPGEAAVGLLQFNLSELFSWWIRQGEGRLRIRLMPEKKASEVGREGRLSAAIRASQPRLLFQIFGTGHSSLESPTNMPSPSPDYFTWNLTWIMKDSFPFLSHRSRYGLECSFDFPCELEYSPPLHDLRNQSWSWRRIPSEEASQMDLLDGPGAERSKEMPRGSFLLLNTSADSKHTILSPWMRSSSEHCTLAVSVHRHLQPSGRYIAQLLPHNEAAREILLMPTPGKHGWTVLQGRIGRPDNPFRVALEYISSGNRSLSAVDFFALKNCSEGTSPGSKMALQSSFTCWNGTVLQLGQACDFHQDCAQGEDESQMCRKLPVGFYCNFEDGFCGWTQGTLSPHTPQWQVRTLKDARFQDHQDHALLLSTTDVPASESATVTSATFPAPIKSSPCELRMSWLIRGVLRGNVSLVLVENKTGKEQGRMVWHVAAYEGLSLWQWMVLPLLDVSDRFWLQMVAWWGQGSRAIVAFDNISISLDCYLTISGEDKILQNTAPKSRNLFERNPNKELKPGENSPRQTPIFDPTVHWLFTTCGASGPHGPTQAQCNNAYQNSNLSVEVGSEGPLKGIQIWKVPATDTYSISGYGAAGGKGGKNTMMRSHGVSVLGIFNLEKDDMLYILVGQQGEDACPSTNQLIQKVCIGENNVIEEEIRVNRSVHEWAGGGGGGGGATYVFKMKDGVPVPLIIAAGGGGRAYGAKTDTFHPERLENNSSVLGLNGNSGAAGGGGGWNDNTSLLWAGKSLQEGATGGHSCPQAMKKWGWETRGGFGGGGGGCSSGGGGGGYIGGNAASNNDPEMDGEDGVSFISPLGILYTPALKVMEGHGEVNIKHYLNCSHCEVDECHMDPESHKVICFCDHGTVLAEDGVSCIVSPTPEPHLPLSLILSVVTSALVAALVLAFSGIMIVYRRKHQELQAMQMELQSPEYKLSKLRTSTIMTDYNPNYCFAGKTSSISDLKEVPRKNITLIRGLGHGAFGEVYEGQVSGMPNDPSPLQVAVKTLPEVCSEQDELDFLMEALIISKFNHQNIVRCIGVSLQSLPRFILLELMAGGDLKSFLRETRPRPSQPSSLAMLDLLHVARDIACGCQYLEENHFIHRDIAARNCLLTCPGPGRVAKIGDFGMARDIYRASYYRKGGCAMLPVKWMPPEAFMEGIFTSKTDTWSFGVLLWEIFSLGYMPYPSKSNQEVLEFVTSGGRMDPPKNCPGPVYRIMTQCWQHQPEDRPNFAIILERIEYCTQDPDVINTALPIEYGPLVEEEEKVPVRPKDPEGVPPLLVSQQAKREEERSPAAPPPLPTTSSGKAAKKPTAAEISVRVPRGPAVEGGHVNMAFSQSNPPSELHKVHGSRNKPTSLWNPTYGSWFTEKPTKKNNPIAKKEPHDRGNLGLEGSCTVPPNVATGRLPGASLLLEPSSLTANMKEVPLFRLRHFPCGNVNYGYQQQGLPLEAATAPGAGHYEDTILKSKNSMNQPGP

SMILES | IC50 (Recombinant ALK kinase) | IC50 [1] | GI50 [2] | IC50 [3]
COC(=O)C(=O)c1ccc2[nH]c3nc(C)ccc3c2c1 [R241, Methyl 2-oxo-2-[2-methyl-9H-pyrido[2,3-b]indol-6-yl]acetate] | 25.3 ± 2.6 µM |  |  | 
CC(=O)c1ccc2[nH]c3nc(C)ccc3c2c1 [R242, 6-acetyl-2-methyl-9H-pyrido[2,3-b]indole] | 87.1 ± 1.3 µM |  |  | 
Cc1ccc2c(n1)[nH]c1ccc(C(=O)c3ccccc3)cc12 [R243, 6-benzoyl-2-methyl-9H-pyrido[2,3-b]indole] | 15.3 ± 1.5 µM |  |  | 
O=[N+]([O-])/C=C/c1ccc2[nH]c3ncccc3c2c1 [R244] | 14.6 ± 2.8 µM |  |  | 
CNCC(=O)c1ccc2[nH]c3ncccc3c2c1 [R245] | 82.4 ± 8.1 µM |  |  | 
CN(C)/C=C/C(=O)c1ccc2[nH]c3ncccc3c2c1 [R246] | 55.1 ± 16.9 µM |  |  | 
Nc1cccc(-c2ccc3[nH]c4ncccc4c3c2)n1 [R247] | > 100 µM |  |  | 
O=C(Nc1ccc2[nH]c3ncccc3c2c1)c1ccccc1 [R249] | > 100 µM |  |  | 
O=C(CBr)c1ccc2[nH]c3ncc(Cl)cc3c2c1 [R251, 2-Bromo-1-(3-chloro-9H-pyrido[2,3-b]indol-6-yl)ethanone] | 9.7 ± 1.3 µM |  |  | 
COc1ccc2sc(SCC(=O)c3ccc4[nH]c5ncc(Cl)cc5c4c3)nc2c1 [R301, 1-(3-chloro-9H-pyrido[2,3-b]indol-6-yl)-2-(5-methoxybenzothiazol-2-ylsulfanyl)éthanone] | 38 ± 16 µM |  |  | 
CN1CCN(C(=O)CCC(=O)c2ccc3[nH]c4nc(Cl)ccc4c3c2)CC1 [R302, 1-(2-Chloro-9H-pyrido[2,3-b]indol-6-yl)-4-(4-methylpiperazin-1-yl)butane-1,4-dione] | 24 ± 2 µM | 5.8 µM | 4.8 µM | 
CN1CCN(C(=O)CCC(=O)c2ccc3[nH]c4ncc(Cl)cc4c3c2)CC1 [R303, 1-(3-Chloro-9H-pyrido[2,3-b]indol-6-yl)-4-(4-methylpiperazin-1-yl)butane-1,4-dione] | 93 ± 1 µM | 9.5 µM | 5.1 µM | 87 µM
CCN(CC)CCSCC(=O)c1ccc2[nH]c3nc(Cl)ccc3c2c1 [R305, 1-(2-Chloro-9H-pyrido[2,3-b]indol-6-yl)-2-(N,N-diethylaminoethylsulfanyl)ethan-1-one] | 17 ± 1 µM | 5.5 µM | 5.2 µM | 16 µM
Clc1cnc2[nH]c3ccc(-c4ccc(N5CCOCC5)cn4)cc3c2c1 [R308, 3-Chloro-6-(5-morpholin-4-yl-pyridin-2-yl)-9H-pyrido[2,3-b]indole] | > 100 µM | 50 µM | 60 µM | 
C(=C\c1ccc2c(n1)[nH]c1ccc(-c3ccc(CN4CCOCC4)cc3)cc12)/c1ccccc1 [R316] | > 33 µM | > 33 µM | 10 µM | 
C(=C\c1ccc2[nH]c3nc(Nc4ccccc4)ccc3c2c1)/c1ccccc1 [R320] |  | 23 µM |  | 
CCN(CC)CCSCC(=O)c1ccc2[nH]c3nc(Nc4cccc([N+](=O)[O-])c4)ccc3c2c1 [R321, 2-(2′-(N,N-diethylamino)ethylthio)-1-[2-(3-nitrophenylamino)-9H-pyrido[2,3-b]indol-6-yl]ethanone] | 18 ± 1 µM | 0.7 µM | 0.3 µM | 
O=[N+]([O-])c1cccc(Nc2ccnc3[nH]c4ccccc4c23)c1 [R322, N-(3-nitrophenyl)-9H-pyrido[2,3-b]indol-4-amine] | 20 ± 4 µM | > 100 µM | 57 µM | 
COc1cccc(Nc2ccnc3[nH]c4ccccc4c23)c1 [R324, N-(3-methoxyphenyl)-9H-pyrido[2,3-b]indol-4-amine] | > 100 µM | 1.7 µM | 3.8 µM | 
c1coc(-c2cnc3[nH]c4ccccc4c3c2)c1 [R325, 3-(furan-2-yl)-9H-pyrido[2,3-b]indole] |  | > 100 µM | > 100 µM | 
O=[N+]([O-])c1cccc(-c2cnc3[nH]c4ccccc4c3c2)c1 [R328, 3-(3-nitrophenyl)-9H-pyrido[2,3-b]indole] | 48 ± 17 µM | 6.8 µM | 13 µM | 
c1ccc(-c2ccc(-c3cnc4[nH]c5ccccc5c4c3)cc2)cc1 [R329, 3-(4-phenylphenyl)-9H-pyrido[2,3-b]indole] | 12 ± 7 µM | > 100 µM | > 100 µM | 
c1ccc(-c2ccc(-c3ccnc4[nH]c5ccccc5c34)cc2)cc1 [R330, 4-(4-phenylphenyl)-9H-pyrido[2,3-b]indole] | 14 ± 2 µM | > 100 µM | > 100 µM | 
COc1cccc(Nc2cnc3[nH]c4ccccc4c3c2)c1 [R344, N-(3-methoxyphenyl)-9H-pyrido[2,3-b]indol-3-amine] | > 100 µM |  |  | 
c1c[nH]c(-c2ccc3c(n2)[nH]c2ccccc23)c1 [R355, 2-(1H-pyrrol-2-yl)-9H-pyrido[2,3-b]indole] | > 100 µM |  |  | 
COc1ccc(-c2ccc3[nH]c4ncc(-c5cccc([N+](=O)[O-])c5)cc4c3c2)cc1 [R356] | > 100 µM |  |  | 
COc1ccc(-c2ccc3[nH]c4ncc(-c5cccc(N)c5)cc4c3c2)cc1 [R357, 3-(6-(4-methoxyphenyl)-9H-pyrido[2,3-b]indol-3-yl)benzenamine] | > 100 µM |  |  | 
Fc1cccc(/C=C/c2cnc3[nH]c4ccc(/C=C/c5ccccc5)cc4c3c2)c1 [R359, 3-((E)-2′-(3-fluorophenyl)ethenyl)-6-(E)-(2-(phenyl)ethenyl)-9H-pyrido[2,3-b]indole] | > 100 µM |  |  | 
